# Laboratory results published in patent publication US8163754B2, “Purine derivatives for use as adenosine A-2A receptor agonists” (Novartis AG, priority 2004, dated 2012).
# Structures can show the parent of a compound that is named as a salt.
# Molecular target: adenosine A2A receptor (Homo sapiens, UniProt P29274)
# Test: A2A receptor agonist assay, method of Murphree et al, Molecular Pharmacology 61, 455-462 (2002)
# Type: binding
# Settings: method of L. J. Murphree et al
# Text: Compounds of formula I and their pharmaceutically acceptable salts are useful as pharmaceuticals. In particular, they activate the adenosine A2A receptor, i.e. they act as A2A receptor agonists.
# Chain of adenosine A2A receptor (P29274 whole entry): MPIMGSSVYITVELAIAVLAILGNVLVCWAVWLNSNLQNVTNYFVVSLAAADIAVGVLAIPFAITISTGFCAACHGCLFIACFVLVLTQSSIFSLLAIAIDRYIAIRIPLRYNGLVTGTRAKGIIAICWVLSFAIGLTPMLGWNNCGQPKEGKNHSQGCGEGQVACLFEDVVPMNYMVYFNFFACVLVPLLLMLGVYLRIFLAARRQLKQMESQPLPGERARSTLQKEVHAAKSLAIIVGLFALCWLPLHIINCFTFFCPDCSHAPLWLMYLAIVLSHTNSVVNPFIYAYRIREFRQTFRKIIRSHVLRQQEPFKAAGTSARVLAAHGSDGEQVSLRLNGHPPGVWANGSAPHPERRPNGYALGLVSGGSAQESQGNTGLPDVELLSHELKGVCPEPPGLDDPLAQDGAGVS
row,SMILES,Ki [nM]
1,"CCC(=O)N[C@H]1C[C@@H](n2cnc3c(NCC(c4ccccc4)c4ccccc4)nc(N4CC[C@@H](NC(=O)N[C@@H]5CCNC5)C4)nc32)[C@H](O)[C@@H]1O [Example 39, N-((1S,2R,3S,4R)-4-{6-(2,2-Diphenyl-ethylamino)-2-[(R)-3-((R)-3-pyrrolidin-3-ylureido)-pyrrolidin-1-yl]-purin-9-yl}-2,3-dihydroxy-cyclopentyl)-propionamide trifluoroacetate]",3
2,"CCC(=O)N[C@H]1C[C@@H](n2cnc3c(NCC(c4ccccc4)c4ccccc4)nc(C(=O)NCCNC(=O)NC4CCN(c5ccccn5)CC4)nc32)[C@H](O)[C@@H]1O [Example 38, 9-((1R,2S,3R,4S)-2,3-Dihydroxy-4-propionylamino-cyclopentyl)-6-(2,2-diphenyl-ethylamino)-9H-purine-2-carboxylic acid {2-[3-(3,4,5,6-tetrahydro-2H-[1,2]bipyridinyl-4-yl)ureido]-ethyl}-amide]",2
3,"CCC(=O)N[C@H]1C[C@@H](n2cnc3c(NCC(c4ccccc4)c4ccccc4)nc(C(=O)NCCNC(=O)N[C@H]4CCN(c5ccccn5)C4)nc32)[C@H](O)[C@@H]1O [Example 47, 9-((1R,2S,3R,4S)-2,3-Dihydroxy-4-propionylamino-cyclopentyl)-6-(2,2-diphenyl-ethylamino)-9H-purine-2-carboxylic acid {2-[3-((S)-1-pyridin-2-yl-pyrrolidin-3-yl)-ureido]-ethyl}-amide trifluoroacetate]",2
4,"CCCCC#Cc1nc(NCC(c2ccccc2)c2ccccc2)c2ncn([C@@H]3C[C@H](NC(=O)CC)[C@@H](O)[C@H]3O)c2n1 [Example 6, N-{(1S,2R,3S,4R)-4-[6-(2,2-Diphenyl-ethylamino)-2-hex-1-ynyl-purin-9-yl]-2,3-dihydroxy-cyclopentyl}-propionamide]",8
5,"CCC(=O)N[C@H]1C[C@@H](n2cnc3c(N)nc(NCCc4ccccc4)nc32)[C@H](O)[C@@H]1O [Example 2, N-[(1S,2R,3S,4R)-4-(6-Amino-2-phenethylamino-purin-9-yl)-2,3-dihydroxy-cvclcpentyl]-propionamide trifluoroacetate]",18
6,"CCC(=O)N[C@H]1C[C@@H](n2cnc3c(NCCC(c4ccccc4)c4ccccc4)nc(NCCc4cn(CC)cn4)nc32)[C@H](O)[C@@H]1O [Example 61, N-((1S,2R,3S,4R)-4-{6-(3,3-diphenyl-propyl-amino)-2-[2-(1-ethyl-1H-imidazol-4-yl)-ethylamino]-purin-9-yl-2,3-dihydroxy-cyclopentyl}-propionamide trifluoroacetate]",9
7,"NC1CCN(c2nc(NCC(c3ccccc3)c3ccccc3)c3ncn(C4CC(NC(=O)C5CCC5)C(O)C4O)c3n2)C1 [Example 33, Cyclobutanecarboxylic acid {(1S,2R,3S,4R)-4-[2-((R)-3-amino-pyrrolidin-1-yl)-6-(2,2-diphenyl-ethylamino-3)-purin-9-yl]-2,3-dihydroxy-cyclopentyl}-amide]",52
